Consider five molecules from ChEMBL document CHEMBL2331539, “A comparative protease stability study of synthetic macrocyclic peptides that mimic two endocrine hormones” (Bioorg Med Chem Lett, 2013).

Data set [1] is described as follows: Stability of the compound in presence of pronase (unknown origin) assessed as degradation measured after 360 mins by HPLC analysis. The class given is ADME. Conditions: read-out: Drug degradation.
Data set [2] can be described thus: Stability of the compound in presence of alpha-chymotrypsin (unknown origin) assessed as degradation measured after 60 mins by HPLC analysis. The class given is ADME, Homo sapiens. Particulars: read-out: Drug degradation.
Data set [3] in a line: Stability of the compound in presence of alpha-chymotrypsin (unknown origin) assessed as degradation measured after 360 mins by HPLC analysis. The class given is ADME, Homo sapiens. Particulars: read-out: Drug degradation.
The nature of data set [4]: Stability of the compound in presence of pepsin (unknown origin) assessed as degradation measured after 120 mins by HPLC analysis. The format is ADME, Homo sapiens. Particulars: read-out: Drug degradation.
Data set [5] in a line: Stability of the compound in presence of pronase (unknown origin) assessed as degradation measured after 60 mins by HPLC analysis. Particulars: read-out: Drug degradation. The class given is ADME.
Data set [6] can be described thus: Stability of the compound in presence of pepsin (unknown origin) assessed as degradation measured after 60 mins by HPLC analysis. The format is ADME, Homo sapiens. Particulars: read-out: Drug degradation.
Data set [7] can be described thus: Stability of the compound in presence of alpha-chymotrypsin (unknown origin) assessed as degradation measured after 120 mins by HPLC analysis. The format is ADME, Homo sapiens. Conditions: read-out: Drug degradation.
Data set [8] is described as follows: Stability of the compound in presence of pepsin (unknown origin) assessed as degradation measured after 360 mins by HPLC analysis. The format is ADME, Homo sapiens. Conditions: read-out: Drug degradation.
Data set [9] has as its target Vasopressin V2 receptor (Homo sapiens, UniProt P30518). Put plainly: Binding affinity to vasopression V2 receptor (unknown origin) on isolated cell membrane by vasopression competition binding assay.
Data set [10] can be described thus: Stability of the compound in presence of pronase (unknown origin) assessed as degradation measured after 120 mins by HPLC analysis. The class given is ADME. Particulars: read-out: Drug degradation.

Square brackets hold non-standard residues; d marks the D form. Peptide text beside a SMILES is read from it. Dap = NC[C@H](N)C(=O)O

Vasopressin V2 receptor, sequence (P30518 whole entry): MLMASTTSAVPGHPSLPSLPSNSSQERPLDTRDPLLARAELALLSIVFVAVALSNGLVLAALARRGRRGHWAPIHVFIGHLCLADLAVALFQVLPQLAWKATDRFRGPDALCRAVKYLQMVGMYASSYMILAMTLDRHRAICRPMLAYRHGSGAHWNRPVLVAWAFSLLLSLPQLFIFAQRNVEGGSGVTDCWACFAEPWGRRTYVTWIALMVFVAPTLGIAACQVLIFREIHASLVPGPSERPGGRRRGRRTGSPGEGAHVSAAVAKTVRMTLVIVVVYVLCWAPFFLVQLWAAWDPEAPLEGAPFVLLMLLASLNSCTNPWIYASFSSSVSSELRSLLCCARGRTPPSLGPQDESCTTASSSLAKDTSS

`NC(=O)CC[C@@H]1NC(=O)[C@H](Cc2ccccc2)NC(=O)[C@H](Cc2ccc(O)cc2)NC(=O)[C@H](Cc2ccc(O)cc2)NC(=O)CNC(=O)[C@H](CC(N)=O)NC1=O` (cyclo(FQNGYY)): the metabolised at 6 h worked out at 64.2% in [1], 24.7% in data set [3] and 5.23% in [8]. The figures for the metabolised at 1 h in data set [2], in data set [5] and in data set [6] were -0.98%, 27.9% and 5.39%, respectively. For the same molecule, the metabolised at 2 h came to 10.2% in data set [4], 1.49% in data set [7] and 50.2% in [10]. Further, the IC50 (as a rule, the concentration needed to halve the response being measured) in data set [9] worked out at 2 µM.

As to `NC[C@@H]1NC(=O)CNC(=O)[C@H](CC(N)=O)NC(=O)[C@H](CCC(N)=O)NC(=O)[C@H](Cc2ccccc2)NC(=O)[C@H](Cc2ccc(O)cc2)NC1=O` (cyclo([Dap]YFQNG)), the figures for the metabolised at 6 h in data set [1], in data set [3] and in data set [8] were 0.882%, 20.3% and 2.08%, respectively. Besides, the figures for the metabolised at 1 h in [2], in [5] and in data set [6] were 6.62%, -2.07% and 0.716%, respectively. In addition, the metabolised at 2 h was 3.52% in [4], 7.08% in data set [7] and 0.323% in data set [10]. Besides, the IC50 in [9] was determined as 10.2 µM.

For `CC[C@H](C)[C@@H]1NC(=O)[C@H](Cc2ccc(O)cc2)NC(=O)[C@H](CN)NC(=O)CNC(=O)[C@H](CC(N)=O)NC(=O)[C@H](CCC(N)=O)NC1=O` (cyclo([Dap]YIQNG)), the values for the metabolised at 6 h in data set [1], in data set [3] and in data set [8] were 6.2%, 0.0955% and 4.66%, respectively. In addition, the results for the metabolised at 1 h in data set [2], in [5] and in data set [6] were 0.136%, 11.5% and 2.34%, respectively. In addition, the values for the metabolised at 2 h in data set [4], in data set [7] and in data set [10] were -0.41%, 0% and 2.99%, respectively.

Take `CC[C@H](C)[C@@H]1NC(=O)[C@H](Cc2ccc(O)cc2)NC(=O)[C@@H](N)CSSC[C@@H](C(=O)N2CCC[C@H]2C(=O)N[C@@H](CC(C)C)C(=O)NCC(N)=O)NC(=O)[C@H](CC(N)=O)NC(=O)[C@H](CCC(N)=O)NC1=O` [OXYTOCIN]: the figures for the metabolised at 6 h in data set [1] and in data set [3] were 100% and 74.6%, respectively. The metabolised at 1 h in data set [2] came to 25.1%; in data set [5] it was 69.6%. For the same molecule, the metabolised at 2 h in data set [7] amounted to 43.2%; in data set [10], 96.8%.

On to `NC(=O)CC[C@@H]1NC(=O)[C@H](Cc2ccccc2)NC(=O)[C@H](Cc2ccc(O)cc2)NC(=O)[C@@H](N)CSSC[C@@H](C(=O)N2CCC[C@H]2C(=O)N[C@@H](CCCN=C(N)N)C(=O)NCC(N)=O)NC(=O)[C@H](CC(N)=O)NC1=O` [VASOPRESSIN], for which the metabolised at 6 h is 48.2% in data set [1], 46.1% in data set [3] and 80.1% in data set [8]. The metabolised at 1 h in [2] was 18.7%; in [5], 4.4%; in data set [6], 79.8%. Further, the metabolised at 2 h in [4] worked out at 78.6%; in [7], 32.1%; in [10] it was 15.9%.
